# Test results: ChEMBL document CHEMBL5380795, “Design, Synthesis, and Bioactivity Investigation of Cyclic Lipopeptide Antibiotics Containing Eight to Nine Amino Acids” (J Med Chem, 2023)
# Calls of active or inactive are those of the source. The rule behind the calls is not given here. Bridge positions count the residues as written; N and C are the ends. Square brackets hold non-standard residues; d marks the D form. Peptide text beside a SMILES is read from it. * marks the point of attachment. Decanoyl(3R-OH) = CCCCCCC[C@@H](O)CC(=O)*; Decanoyl = CCCCCCCCCC(=O)*; dDab = NCC[C@@H](N)C(=O)O; Dab = NCC[C@H](N)C(=O)O
# Experiments:
# Pseudomonas aeruginosa [1] = assay: Antibacterial activity against Pseudomonas aeruginosa ATCC 27853 incubated for 18 hrs by broth microdilution method; type: functional
# Pseudomonas aeruginosa [2] = assay: Antibacterial activity against Pseudomonas aeruginosa FADDI-PA025 incubated for 18 hrs by broth microdilution method; type: functional
# Pseudomonas aeruginosa [3] = assay: Antibacterial activity against Pseudomonas aeruginosa FADDI-PA070 incubated for 18 hrs by broth microdilution method; type: functional
# Pseudomonas aeruginosa [4] = assay: Antibacterial activity against Pseudomonas aeruginosa FADDI-PA060 incubated for 18 hrs by broth microdilution method; type: functional
# Pseudomonas aeruginosa [5] = assay: Antibacterial activity against Pseudomonas aeruginosa FADDI-PA090 incubated for 18 hrs by broth microdilution method; type: functional
# Staphylococcus aureus [6] = assay: Antibacterial activity against Staphylococcus aureus ATCC 29213 assessed as inhibition of bacterial growth incubated for 18 to 24 hrs by broth microdilution method; type: functional; details: time 18-24 hrs
# [7] = tested on: Staphylococcus epidermidis; assay: Antibacterial activity against methicillin resistant Staphylococcus epidermidis clinical isolate 19-5 assessed as inhibition of bacterial growth incubated for 18 to 24 hrs by broth microdilution method; type: functional; details: time 18-24 hrs
# [8] = tested on: Staphylococcus epidermidis; assay: Antibacterial activity against methicillin resistant Staphylococcus epidermidis clinical isolate 19-6 assessed as inhibition of bacterial growth incubated for 18 to 24 hrs by broth microdilution method; type: functional; details: time 18-24 hrs
# Escherichia coli [9] = assay: Antibacterial activity against Escherichia coli ATCC BAA-2523 assessed as inhibition of bacterial growth incubated for 18 to 24 hrs by broth microdilution method; type: functional; details: time 18-24 hrs
# Escherichia coli [10] = assay: Antibacterial activity against Escherichia coli NCTC 13353 assessed as inhibition of bacterial growth incubated for 18 to 24 hrs by broth microdilution method; type: functional; details: time 18-24 hrs
# Escherichia coli [11] = assay: Antibacterial activity against Escherichia coli clinical isolate 19-2 assessed as inhibition of bacterial growth incubated for 18 to 24 hrs by broth microdilution method; type: functional; details: time 18-24 hrs
# Escherichia coli [12] = assay: Antibacterial activity against KPC producing Escherichia coli ATCC BAA-2340 assessed as inhibition of bacterial growth incubated for 18 to 24 hrs by broth microdilution method; type: functional; details: time 18-24 hrs
# Klebsiella pneumoniae [13] = assay: Antibacterial activity against carbapenem resistant Klebsiella pneumoniae clinical isolate 19-15 assessed as inhibition of bacterial growth incubated for 18 to 24 hrs by broth microdilution method; type: functional; details: time 18-24 hrs
# Klebsiella pneumoniae [14] = assay: Antibacterial activity against carbapenem resistant Klebsiella pneumoniae clinical isolate 19-17 assessed as inhibition of bacterial growth incubated for 18 to 24 hrs by broth microdilution method; type: functional; details: time 18-24 hrs
# Pseudomonas aeruginosa [15] = assay: Antibacterial activity against Pseudomonas aeruginosa clinical isolate 19-1 assessed as inhibition of bacterial growth incubated for 18 to 24 hrs by broth microdilution method; type: functional; details: time 18-24 hrs
# Pseudomonas aeruginosa [16] = assay: Antibacterial activity against carbapenem resistant Pseudomonas aeruginosa clinical isolate 17-1 assessed as inhibition of bacterial growth incubated for 18 to 24 hrs by broth microdilution method; type: functional; details: time 18-24 hrs
# Pseudomonas aeruginosa [17] = assay: Antibacterial activity against Pseudomonas aeruginosa ATCC 27853 assessed as inhibition of bacterial growth incubated for 18 to 24 hrs by broth microdilution method; type: functional; details: time 18-24 hrs
# Acinetobacter baumannii [18] = assay: Antibacterial activity against oxacillinase-27 producing Acinetobacter baumannii NCTC 13304 assessed as inhibition of bacterial growth incubated for 18 to 24 hrs by broth microdilution method; type: functional; details: time 18-24 hrs
# Cell membrane = assay: Induction of outer membrane permeabilization in Escherichia coli ATCC 25922 assessed as increase in fluorescence at 1 to 16 ug/ml measured after 3 mins by NPN-dye based assay; type: subcellular; details: dose 1-16 µg/ml
# Escherichia coli [19] = assay: Antibacterial activity against Escherichia coli ATCC 25922 assessed as inhibition of bacterial growth incubated for 18 to 24 hrs by broth microdilution method; type: functional; details: time 18-24 hrs
# Staphylococcus aureus [20] = assay: Antibacterial activity against methicillin resistant Staphylococcus aureus ATCC 33591 assessed as inhibition of bacterial growth incubated for 18 to 24 hrs by broth microdilution method; type: functional; details: time 18-24 hrs
# Klebsiella pneumoniae [21] = assay: Antibacterial activity against KPC producing Klebsiella pneumoniae ATCC BAA-1705 assessed as inhibition of bacterial growth incubated for 18 to 24 hrs by broth microdilution method; type: functional; details: time 18-24 hrs
# Pseudomonas aeruginosa [22] = assay: Antibacterial activity against carbapenem resistant Pseudomonas aeruginosa clinical isolate 19-3 assessed as inhibition of bacterial growth incubated for 18 to 24 hrs by broth microdilution method; type: functional; details: time 18-24 hrs
# Acinetobacter baumannii [23] = assay: Antibacterial activity against carbapenem resistant Acinetobacter baumannii clinical isolate 19-8 assessed as inhibition of bacterial growth incubated for 18 to 24 hrs by broth microdilution method; type: functional; details: time 18-24 hrs
# [24] = Cytotoxicity against human HK-2 cells assessed as inhibition of cell growth incubated for 72 hrs by CCK-8 assay; type: toxicity, cell-based
# [25] = Selectivity index, ratio of IC50 for cytotoxicity against human HK-2 cells to MIC for antibacterial activity against Escherichia coli ATCC BAA-2523; type: toxicity, cell-based
# [26] = Plasma protein binding in human at 2 uM incubated for 6 hrs by equilibrium dialysis based LC-MS/MS analysis; type: ADME, cell-free; details: read-out: PPB (converted)
# Escherichia coli [27] = assay: Antibacterial activity against Escherichia coli; type: functional
# Pseudomonas aeruginosa [28] = assay: Antibacterial activity against Pseudomonas aeruginosa; type: functional
# Klebsiella pneumoniae [29] = assay: Antibacterial activity against Klebsiella pneumoniae; type: functional
# Acinetobacter baumannii [30] = assay: Antibacterial activity against Acinetobacter baumannii; type: functional
# Staphylococcus aureus [31] = assay: Antibacterial activity against Staphylococcus aureus; type: functional
# [32] = tested on: Staphylococcus epidermidis; assay: Antibacterial activity against Staphylococcus epidermidis; type: functional
# Candida albicans = assay: Antifungal activity against Candida albicans; type: functional
Structure (SMILES),MIC (Staphylococcus aureus [6]),MIC [7],MIC [8],MIC (Escherichia coli [9]),MIC (Escherichia coli [10]),MIC (Escherichia coli [11]),MIC (Escherichia coli [12]),MIC (Klebsiella pneumoniae [13]),MIC (Klebsiella pneumoniae [14]),MIC (Pseudomonas aeruginosa [15]),MIC (Pseudomonas aeruginosa [16]),MIC (Pseudomonas aeruginosa [17]),MIC (Acinetobacter baumannii [18]),also measured
CCCCCCCCCC(=O)N[C@H](CCN)C(=O)N[C@H]1CCNC(=O)[C@H]([C@@H](C)O)NC(=O)[C@H](CCN)NC(=O)[C@H](CCN)NC(=O)[C@H](CC(C)C)NC(=O)[C@@H](Cc2ccccc2)NC(=O)[C@H](CCN)NC1=O (Decanoyl-[dDab][Dab][Dab][dF]L[Dab][Dab]T; lactam 2-C),,,,,,,,,,,,,,MIC (Pseudomonas aeruginosa [1]): 0.5 µg/mL; MIC (Pseudomonas aeruginosa [2]): 0.5 µg/mL; MIC (Pseudomonas aeruginosa [3]): 0.5 µg/mL; MIC (Pseudomonas aeruginosa [4]): 0.5 µg/mL; MIC (Pseudomonas aeruginosa [5]): 0.5 µg/mL
C[C@@H](O)[C@H]1C(=O)N2C(C(=O)O)=C(S[C@@H]3CN[C@H](C(=O)N(C)C)C3)[C@H](C)[C@H]12 [MEROPENEM],0.125 µg/mL,2 µg/mL,2 µg/mL,0.25 µg/mL,< 0.06 µg/mL,≤ 0.06 µg/mL,4 µg/mL,64 µg/mL,> 64 µg/mL,0.5 µg/mL,32 µg/mL,1 µg/mL,64 µg/mL,Activity (Cell membrane): inactive; MIC (Escherichia coli [19]): 0.06 µg/mL
CCCCCCC[C@@H](O)CC(=O)N[C@H](CCN)C(=O)N[C@H]1CCNC(=O)[C@H](CC(C)C)NC(=O)[C@H](CCN)NC(=O)[C@H](CCN)NC(=O)[C@H](CC(C)C)NC(=O)[C@@H](Cc2ccccc2)NC(=O)[C@H](CCN)NC1=O ({Decanoyl(3R-OH)}-[dDab][Dab][Dab][dF]L[Dab][Dab]L; lactam 2-C),16 µg/mL,2 µg/mL,4 µg/mL,8 µg/mL,8 µg/mL,16 µg/mL,2 µg/mL,8 µg/mL,8 µg/mL,2 µg/mL,2 µg/mL,2 µg/mL,8 µg/mL,"MIC (Staphylococcus aureus [20]): 16 µg/mL; MIC (Klebsiella pneumoniae [21]): 8 µg/mL; MIC (Pseudomonas aeruginosa [22]): 4 µg/mL; MIC (Acinetobacter baumannii [23]): 4 µg/mL; IC50 at 72 h [24]: 14.2 µg/mL; selectivity ratio [25]: 1.8; fraction unbound at 6 h, 2 µM [26]: 0.0805; MIC (Escherichia coli [27]): 0.1 µg/mL; MIC (Pseudomonas aeruginosa [28]): 0.4 µg/mL; MIC (Klebsiella pneumoniae [29]): 0.78 µg/mL; MIC (Acinetobacter baumannii [30]): 4 µg/mL; MIC (Staphylococcus aureus [31]): 3.1 µg/mL; MIC [32]: 0.6 µg/mL; MIC (Candida albicans): 4.7 µg/mL"
